A short description of data set [1]: Dose tolerance studies / MTD in mice. As to conditions: NOD/SCID, mouse, in vivo, po. The procedure:
NOD/SCID mice were administered FV-162 (30 mg/kg daily, 7 days/week) in a 5% DMSO, 20% Cremophor vehicle by oral gavage or ONX-0912 (30 mg/kg daily, 7 days/week) in a 5% DMSO, 20% Cremophor vehicle by oral gavage for a week. Mice were monitored for changes in body weight, behavior, and physical appearance.

Data set [2] relates to MM.1S human myeloma cells. Description: Subcutaneous MM.1S myeloma xenograft model. The format is in vivo, NOD/SCID mice. As to conditions: for tumor burden compared with vehicle control: P<0.01 by day 24, P<0.001 after 27 days. The protocol:
Human MM.1S myeloma cells (5 × 10^6) were injected subcutaneously into 6–8-week-old female NOD/SCID mice (10 mice per group). When tumors were palpable, mice were administered vehicle by oral gavage (5% DMSO, 20% Cremophor; once daily × 3 weeks), carfilzomib intravenously (5 mg/kg, once daily on days 1 and 2 of each week × 3 weeks), ONX-0912 by oral gavage (30 mg/kg, once daily on days 1 and 2 of each week × 3 weeks), or FV-162 by oral gavage (30 mg/kg or 100 mg/kg, once daily × 3 weeks). Over time, tumor volume (tumor length × width^2 × 0.5236) was measured with calipers (Control Company, Friendswood, TX, USA), and mouse body weight was monitored.

A short description of data set [3]: Pharmacokinetic study in Sprague-Dawley rats. The class given is in vivo. The conditions noted are these: rat; for bioavailability: 40 mg/kg p.o. vs 5 mg/kg i.v.
In the next data set the test system is CT-L proteasome activity. Description: CT-L proteasome activity in RBCs of treated mice. The format is in vivo, mouse. The conditions noted are these: for duration of inhibition of proteasome activity in isolated RBCs: after single oral treatment of mice; for inhibition of CT-L activity in RBCs compared with ONX-0912 (30 mg/kg): up to 24 h postdose. The protocol: Cells were harvested by centrifugation at 1200 r.p.m. at room temperature. Cell pellets were washed with PBS and lysed with assay lysis buffer (50 mM HEPES (2-[4-(2-hydroxyethyl) piperazin-1-yl]ethanesulfonic acid)), pH 7.5; 150 mM NaCl; 1% Triton X-100; 2 mM ATP). Cell lysates were incubated on ice for 30 min, mixed by vortex every 5 min, and centrifuged at 12 000 × g for 10 min. Supernatants were transferred to a 96-well plate in triplicate. For each assay, 10 μg of total protein were incubated for 1 h at 37 °C with increasing concentrations (0.001–10 μM) of test compound or vehicle control diluted in assay buffer (50 mM Tris-HCl (tris(hydroxymethyl)aminomethane-HCl), pH 7.5; 150 mM NaCl). After incubation, a specific fluorogenic proteasome substrate was added to each assay reaction (40 μM in a total volume of 100 μl). N-Succinyl-Leu-Leu-Val-Tyr-7-amino-4-methylcoumarin (Suc-Leu-Leu-Val-Tyr-AMC) was used for measuring CT-L activity, t-butoxycarbonyl- Leu-Arg-Arg-7-amino-4-methylcoumarin (Boc-Leu-Arg-Arg-AMC) for T-L activity, and benzyloxycarbonyl-L-leucyl-L-leucyl-L-glutamyl-7-amino-4-methylcoumarin (Z-Leu-Leu-Glu-AMC) for C-L activity. The excitation wavelength was 360 nm and the fluorescence emission of free AMC released during the enzymatic reaction was detected at 460 nm on a SpectraMax M5 fluorescent spectrophotometric plate reader (Molecular Devices, Sunnyvale, CA, USA). AMC release rate was measured at 37 °C in a kinetic mode, recording every 5 min for 30 min.
Five-to-six-week-old male NOD/SCID mice were administered vehicle (5% DMSO, 20% Cremophor) or proteasome inhibitors either intravenously or by oral gavage (3 mice per group), and 20–50 μl of venous blood were collected from each mouse over 24 h. Blood samples were mixed with heparin (APP Pharmaceuticals; Schaumburg, IL, USA) in 0.5-ml tubes in accordance with the manufacturer's instructions. After centrifugal separation at 3000 × g for 10 min, RBCs in the bottom layer were transferred into a new tube and stored at −70 °C until use. RBCs were lysed with assay lysis buffer and incubated on ice for 30 min, mixing by vortex every 5 min, and centrifuged at 12 000 × g for 10 min. Supernatants were transferred to a 96-well plate and proteasome activity was measured as described in 'Cell lysates' section.

Data set [4] is described as follows: Metabolic stability assay with pooled mouse liver microsomes. The class given is in vitro ADME. As to conditions: 5 μM compound, 15 min, 0.5 mg/ml pooled mouse liver microsomes, LC/MS. The protocol: Pooled liver microsomes isolated from male CD-1 mice were purchased from BD Biosciences (San Jose, CA, USA). Metabolic stability was calculated by measuring the percentage of 5 μM of each test compound remaining after 15 min incubation with 0.5 mg/ml liver microsomes at 37 °C. Compounds were detected by LC/MS using a Xevo quadrupole time-of-flight mass spectrometer and an ACQUITY ultra-performance LC (UPLC) system (Waters Inc., Milford, MA, USA) to determine relative peak areas of each parent compound.
In general terms: Liver microsomes are vesicles of endoplasmic reticulum, rich in cytochrome P450 enzymes.

Data set [5] has as its system primary CD138+ myeloma cells. Description: Annexin V flow cytometry viability of primary bone marrow mononuclear cells, myeloma fraction. The format is cell-based, human. The procedure:
Human multiple myeloma cell lines 8226, H929, JJN3, KMH11, KMS11, KMS18, LP1, MM.1 S, OPM2, and U266 were grown in Iscove's modified Dulbecco's medium (IMDM). Cell lines were authenticated with short tandem repeat method in September 2011. In addition, cell lines were continually monitored by morphological inspection. Primary mononuclear cells were isolated from peripheral blood or bone marrow samples from multiple myeloma patients at the Princess Margaret Cancer Centre (Toronto, ON, Canada) by Ficoll density gradient centrifugation and cultured in IMDM. All cell culture media were obtained from the Ontario Cancer Institute Tissue Culture Media Facility (Toronto, ON, Canada) and were supplemented with 10% fetal calf serum, 100 μg/ml penicillin, and 100 μg/ml streptomycin (Hyclone, Logan, UT, USA). […]
Cellular viability was primarily assessed by MTS assay according to the manufacturer's instructions (Promega, Madison, WI, USA). […] Cell viability was independently confirmed by reading the optical density at 490 nm and by exclusion of trypan blue stain (Invitrogen, Burlington, ON, Canada). Viability of primary mononuclear cells was determined by Annexin V–fluorescein isothiocyanate and propidium iodide co-staining (Biovision Research Products, Mountain View, CA, USA) using flow cytometry according to the manufacturer's instructions after 48 h of treatment with inhibitors or vehicle control.
(A flow cytometer gives signals particle by particle.)

The mark [6] stands for this setting: male, Sprague-Dawley, plasma, iv, 5 mg/kg i.v.
The mark [7] stands for this setting: male, Sprague-Dawley, plasma, iv, 5 mg/kg i.v., read-out: AUC (converted).
[8] abbreviates: male, Sprague-Dawley, plasma, iv, 5 mg/kg i.v., read-out: Cmax.
Where [9] appears, read: male, Sprague-Dawley, plasma, po, 40 mg/kg p.o.
Setting [10] is: male, Sprague-Dawley, plasma, po.
Where [11] appears, read: male, Sprague-Dawley, plasma, 40 mg/kg oral, read-out: AUC (as printed in text) (converted).
Where [12] appears, read: male, Sprague-Dawley, plasma, 40 mg/kg oral, read-out: Cmax (as printed in text).

What is called Tmax is the time at which the peak concentration occurs. In general, Vd refers to a proportionality between amount in the body and measured concentration, not a real space. The term half-life denotes how long it takes for the measured level to halve. A low value points to rapid decline. Broadly, the AUC is the area under the concentration-time curve, a measure of exposure. The term Cmax denotes the peak of the concentration-time curve. Usually bioavailability stands for the share of a dose that reaches the circulation, judged against a reference dose that is usually intravenous. Low readings indicate poor availability, high ones good availability. As usually defined, the clearance is a measure of how efficiently the substance is removed, as volume per time. Read a low clearance as a low capacity for elimination.

Like-named read-outs stand apart in the source and are kept apart here.

In the case of `Cc1ncc(C(=O)N[C@@H](COC(F)F)C(=O)N[C@@H](COC(F)F)C(=O)N[C@@H](Cc2ccccc2)C(=O)[C@@]2(C)CO2)s1` [FV-162], the MTD in data set [1] amounted to 200 mg/kg. Also, the “tumor burden compared with vehicle control” value in data set [2] (30 mg/kg daily by oral gavage) and in data set [2] (100 mg/kg daily by oral gavage) was “significantly reduced tumor burden” each time. For the same compound, the “tumor growth reduction compared with ONX-0912 (30 mg/kg)” value in data set [2] (100 mg/kg daily, by 27 days after inoculation, P<0.05) is given as “greater reduction in tumor growth”. The results for the time to peak (Tmax) in data set [3] (setting [6]) and in data set [3] (setting [9]) were 5 min and 15 min, respectively. Further, the Vd in data set [3] (setting [6]) turned out to be 20 L/kg. The half-life in data set [3] (setting [6]) was 68 min. For the same compound, the AUC is 403 ng·h/mL in data set [3] (setting [7]), 451 ng·h/mL in data set [3] (setting [11]) and 27 073 min × ng/ml in data set [3] (40 mg/kg p.o.). The Cmax was 392 ng/mL in data set [3] (setting [8]) and 615 ng/mL in data set [3] (setting [12]). This compound returned a bioavailability in data set [3] (setting [10]) of 14%. The “duration of inhibition of proteasome activity in isolated RBCs” value in the data set on CT-L proteasome activity is recorded as “sustained for up to 24 h”. Besides, the “inhibition of CT-L activity in RBCs compared with ONX-0912 (30 mg/kg)” value is listed as “less inhibition of the CT-L activity than ONX-0912” in the data set on CT-L proteasome activity (single oral dose 30 mg/kg) and “performed similarly to almost the MTD of ONX-0912” in the data set on CT-L proteasome activity (single oral dose 100 mg/kg (half the MTD)). Also, in data set [4], the “percentage of parent compound remaining” value was “Over 80%”. The “primary myeloma cells killed” value in data set [5] (concentrations ⩽0.1 μM, 48 h, n=8 patients) is reported as “At least 80%”.

For `COC[C@H](NC(=O)c1cnc(C)s1)C(=O)N[C@@H](COC)C(=O)N[C@@H](Cc1ccccc1)C(=O)[C@@]1(C)CO1` [ONX-0912, reference compound], in data set [1], the MTD is 40 mg/kg. Besides, the “tumor burden compared with vehicle control” value in data set [2] (30 mg/kg twice weekly by oral gavage) is “significantly reduced tumor burden”. The time to peak (Tmax) in data set [3] (setting [6]) and in data set [3] (setting [9]) was 5 min each time. In data set [3] (setting [6]), this compound yielded a distribution volume (Vd) of 4 L/kg. For the same compound, in data set [3] (setting [6]), the clearance is 273 mL/min/kg. Besides, in data set [3] (setting [6]), the half-life was determined as 10 min. Also, the figures for the AUC in data set [3] (setting [7]), in data set [3] (setting [11]) and in data set [3] (40 mg/kg p.o.) were 301 ng·h/mL, 377 ng·h/mL and 22 627 min × ng/ml, respectively. In addition, the Cmax in data set [3] (setting [8]) is 1090 ng/mL; in data set [3] (setting [12]), 1270 ng/mL. The bioavailability in data set [3] (setting [10]) came out at 16%. In addition, the “duration of inhibition of proteasome activity in isolated RBCs” value in the data set on CT-L proteasome activity is on record as “sustained for up to 24 h”. Further, the “percentage of parent compound remaining” value in data set [4] is recorded as 56%. Besides, in data set [5] (similar concentrations as FV-162, 48 h), the “induction of death in primary myeloma cells” value was “less effective at inducing death in primary myeloma cells”.
